The nature of series [1]: Water solubility of active agent with and without glycyrrhizin ammonium (24 h rotation, filtration, HPLC). Particulars: versus control with zero glycyrrhizin, 0.1 M glycyrrhizin ammonium, distilled water, room temperature.
The conditions of series [2]: cited from earlier work; for bioavailability: oral administration.
The conditions of series [3]: cited from earlier work.
The conditions of series [4]: cited from earlier work. The source holds these as a separate data set.
Another series can be described thus: physchem. Particulars: thermodynamic from solid.

Values after ≈ are worked out from the molar mass of the structure shown. Counter-ions that a name gives are not always drawn.

As for “5-[-2-ethoxy-5-(4-methylpiperazin-1ylsulphonyl)phenyl]-1-methyl -3-n-propyl-1,6-dihydro-7H-pyrazolo[4,3-d]pyrimidine [sildenafil]”, the “increase of solubility through complexation with glycyrrhizin” value in series [1] was 200 fold; in series [1] (listed as sildenfil), “more than 200 fold”.
As for `CCCc1nn(C)c2c(=O)[nH]c(-c3cc(S(=O)(=O)N4CCN(C)CC4)ccc3OCC)nc12` [Sildenafil citrate], the bioavailability result in series [2] is “about 40%”. For the same molecule, the solubility in series [3] (formulated as a regular film tablet) is 6000 to 8000 µg/mL.
As for `O=C1CC2(CCCC2)CC(=O)N1CCCCN1CCN(c2ncccn2)CC1` [buspirone, 8-[4-[4-(2-pyrimidinyl)1-piperazinyl]butyl]-8-azaspiro(4,5)-decane-7,9-dione], the biological half-life in series [4] (in man) was 2–11 hours. For the same molecule, the “interindividual variation of the maximum plasma concentration” value in series [4] (oral) is “up to 10 fold”. The values for the solubility at 24 h in the series “physchem” (aqueous with cosolvent or surfactant or cyclodextrin) and in the series “physchem” (water) were 44000 µg/mL (≈ 114000 µM) and 380 µg/mL (≈ 986 µM), respectively.
As for `NC(N)=Nc1nc(CSCCC(N)=NS(N)(=O)=O)cs1` [famotidine, N′(aminosulfonyl)-3-[[[2-[(diaminomethylene)amino]-4-thiazolyl]methyl]thio] propanimidamide], the “time to peak plasma concentration” value in series [2] (after oral administration) was 1 to 3.5 h. Besides, the bioavailability result in series [2] is “approximately 43%”. In addition, the “effect of food on bioavailability” value in series [2] (tablet formulation) is “unaffected by food”. Besides, in series [3], the intrinsic water solubility is 278 µg/mL and the pKa is reported as 6.8. In series [3] (ethanol), the solubility in ethanol result is “insoluble”. The “solubility in glacial acetic acid” value in series [3] (glacial acetic acid) is given as “freely soluble”. Besides, the solubility in water result in series [3] (water) was “very slightly soluble”. Moreover, the solubility at 24 h in the series “physchem” (water) was under 1000 µg/mL.
Consider `CC(C)(C)c1ccc(C(O)CCCN2CCC(C(O)(c3ccccc3)c3ccccc3)CC2)cc1` (stereo not drawn) [terfenadine], for which, in series [2] (oral tablet, first-pass effect), the “fraction of a tablet given by mouth changed to metabolites” value is reported as 99.5%.
